Assay [1] relates to Plasmodium falciparum. Nature of the assay: Antiplasmodial activity against chloroquine-sensitive Plasmodium falciparum D10 infected in human type A-positive RBC assessed as inhibition of parasite LDH activity after 72 hrs by spectrophotometrically. In kind it is functional, organism-based. As to conditions: D10, 72 h.
In assay [2] the test system is Plasmodium falciparum. Nature of the assay: Antiplasmodial activity against chloroquine-resistant Plasmodium falciparum W2 infected in human type A-positive RBC assessed as inhibition of parasite LDH activity after 72 hrs by spectrophotometric analysis. The assay is classed as functional, organism-based. As to conditions: W2, 72 h.

SMILES strings stand for the structures.

For `CCCCC1(C)C[C@]2(C)CCO[C@@H]2OO1` (mixture of isomers), the figures for the IC50 with Plasmodium falciparum [1] and with Plasmodium falciparum [2] were 2.9 µM and 1.4 µM, respectively.

Turning to `CCC(CC)C[C@]1(C)C[C@@H](CC)[C@@H](CC(=O)OC)OO1`, the figures for the IC50 in the assay on Plasmodium falciparum [1] and in the assay on Plasmodium falciparum [2] were 2.4 µM and 0.87 µM, respectively.

Consider `CC[C@@]12CCO[C@@H]1OOC(C)(C)C2` (racemic), for which the IC50 with Plasmodium falciparum [1] and in the assay on Plasmodium falciparum [2] was above 10 µM throughout.

For the compound `CC[C@@H]1CC(C)(C)OO[C@@H]1[C@H](O)COC(C)=O`, the IC50 in the assay with Plasmodium falciparum [1] and in the assay on Plasmodium falciparum [2] was above 10 µM in each case.

For `CC1(CC2C3CC4CC(C3)CC2C4)C[C@]2(C)CCO[C@@H]2OO1` (mixture of isomers), the IC50 with Plasmodium falciparum [1] amounted to 0.23 µM; with Plasmodium falciparum [2], 0.15 µM.

For `CC(C)C[C@@]12CCO[C@@H]1OOC(C)(C)C2` (racemic), the IC50 with Plasmodium falciparum [1] and with Plasmodium falciparum [2] was above 10 µM throughout.

For the compound `Cc1ccccc1[C@H]1C[C@]2(C)CCO[C@@H]2OO1` (racemic), the IC50 with Plasmodium falciparum [1] is above 20 µM; with Plasmodium falciparum [2], 11 µM.

Turning to `CCCCCC1(C)C[C@@H]2CCO[C@@H]2OO1` (mixture of isomers), the IC50 in the assay on Plasmodium falciparum [1] and in the assay on Plasmodium falciparum [2] was above 10 µM in each case.

As for `CCC(CC)C[C@@]1(C)C[C@@H](CC)[C@@H](CC(=O)OC)OO1`, the IC50 worked out at 0.89 µM in the assay with Plasmodium falciparum [1] and 0.64 µM with Plasmodium falciparum [2].

As for `CC1(C)C[C@]2(C)CCO[C@@H]2OO1` (racemic), the IC50 in the assay with Plasmodium falciparum [1] and in the assay with Plasmodium falciparum [2] was above 10 µM throughout.

Turning to `CCc1ccccc1[C@@H]1C[C@]2(C)CCO[C@@H]2OO1` (racemic), the IC50 in the assay with Plasmodium falciparum [1] and in the assay with Plasmodium falciparum [2] was above 20 µM in each case.

Regarding `CCC(CC)CC1(C)C[C@@H]2CCO[C@@H]2OO1` (mixture of isomers), the IC50 in the assay on Plasmodium falciparum [1] is above 10 µM; in the assay with Plasmodium falciparum [2] it was 8.6 µM.

Regarding `C[C@@]12CCO[C@@H]1OO[C@@H](c1ccccc1)C2` (racemic), the IC50 in the assay on Plasmodium falciparum [1] and with Plasmodium falciparum [2] was above 20 µM each time.

Regarding `CCCCC1(C)C[C@@H]2CCO[C@@H]2OO1` (mixture of isomers), the IC50 in the assay with Plasmodium falciparum [1] and with Plasmodium falciparum [2] was above 10 µM in each case.

For the compound `CCC(CC)C[C@@]1(C)C[C@@H](CC)[C@@H]([C@H](O)CO)OO1`, the values for the IC50 in the assay on Plasmodium falciparum [1] and in the assay with Plasmodium falciparum [2] were 1.2 µM and 0.84 µM, respectively.

`CCC(CC)C[C@]1(C)C[C@@H](CC)[C@@H]([C@H](O)CO)OO1`: the IC50 came out at 2.4 µM with Plasmodium falciparum [1] and 1.3 µM with Plasmodium falciparum [2].

On to `C[C@@]12CCO[C@@H]1OO[C@H](c1ccccc1)C2` (racemic), for which the IC50 in the assay on Plasmodium falciparum [1] and in the assay on Plasmodium falciparum [2] was above 20 µM throughout.

On to `CC1(C)C[C@@H]2CCO[C@@H]2OO1` (relative stereo), for which the IC50 in the assay with Plasmodium falciparum [1] and with Plasmodium falciparum [2] was above 10 µM each time.

Consider `CC(C)Cc1ccccc1[C@H]1C[C@]2(C)CCO[C@@H]2OO1` (racemic), for which the IC50 was 13 µM in the assay with Plasmodium falciparum [1] and 5.7 µM in the assay with Plasmodium falciparum [2].

As for `Cc1ccccc1[C@@H]1C[C@]2(C)CCO[C@@H]2OO1` (racemic), the IC50 in the assay with Plasmodium falciparum [1] and in the assay on Plasmodium falciparum [2] was above 20 µM throughout.

In the case of `CC(C)c1ccccc1[C@H]1C[C@]2(C)CCO[C@@H]2OO1` (racemic), the IC50 in the assay with Plasmodium falciparum [1] turned out to be 8.3 µM; with Plasmodium falciparum [2], 4.6 µM.

For the compound `CC1(CC2CCCC2)C[C@]2(C)CCO[C@@H]2OO1` (mixture of isomers), the IC50 in the assay with Plasmodium falciparum [1] came to 0.55 µM; in the assay on Plasmodium falciparum [2], 0.34 µM.

For `CCC(CC)CC1(C)C[C@]2(C)CCO[C@@H]2OO1` (mixture of isomers), the IC50 amounted to 0.76 µM in the assay on Plasmodium falciparum [1] and 0.39 µM in the assay on Plasmodium falciparum [2].

As for `CC[C@@H]1CC(C)(C)OO[C@@H]1[C@H](O)CO`, the IC50 with Plasmodium falciparum [1] and with Plasmodium falciparum [2] was above 10 µM each time.

On to `CCCCCC1(C)C[C@]2(C)CCO[C@@H]2OO1` (mixture of isomers), for which the IC50 in the assay on Plasmodium falciparum [1] was 2.9 µM; with Plasmodium falciparum [2] it was 1.5 µM.

As to `CCc1ccccc1[C@H]1C[C@]2(C)CCO[C@@H]2OO1` (racemic), the figures for the IC50 with Plasmodium falciparum [1] and with Plasmodium falciparum [2] were 15 µM and 7.7 µM, respectively.

With `CC1(CC2CCCCC2)C[C@]2(C)CCO[C@@H]2OO1` (mixture of isomers), the IC50 in the assay on Plasmodium falciparum [1] was 0.49 µM; with Plasmodium falciparum [2] it was 0.36 µM.

The values are drawn from ChEMBL document CHEMBL1817607, “Synthesis and antiplasmodial activity of bicyclic dioxanes as simplified dihydroplakortin analogues” (J Med Chem, 2011).
